Measured values from patent publication US12077503B2, “Substituted cyclic amides and their use as herbicides” (FMC CORPORATION, priority 2015, dated 2024).
Like-named read-outs stand apart in the source and are kept apart here.

Columns and labels:
Assay type in all cases: in vivo
[1] = test system: giant foxtail (Setaria faberii); test: Test A postemergence; settings: Setaria faberi, post-emergence, 240 h, Postemergence; for pest or weed control at 125 g/ha: 125 g ai/ha; for pest or weed control at 500 g/ha: 500 g ai/ha, visual injury, 0 to 100 scale (0 no effect, 100 complete control), approx. 10 d
Outline: (§1)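 Preemergence directed soil spray on seeded pots, or postemergence application to plants 2–10 cm, one- to two-leaf. Solvent mixture non-phytotoxic, with surfactant. Scored ~10 d later, visually, 0–100 vs untreated.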

[2] = test system: wheat (Triticum aestivum); test: Test A postemergence; settings: Triticum aestivum, post-emergence, 240 h, Postemergence; for plant injury at 125 g/ha: 125 g ai/ha; for plant injury at 500 g/ha: 500 g ai/ha, visual injury, 0 to 100 scale (0 no effect, 100 complete control), approx. 10 d
Outline: as §1

[3] = test system: corn (Zea mays); test: Test A postemergence; settings: Zea mays, post-emergence, 240 h, Postemergence; for plant injury at 125 g/ha: visual rating about 10 d after treatment, read-out: Corn plant response rating (0 to 100 scale); for Corn plant response rating (crop injury, 0 = no effect, 100 = complete kill) at 500 g/ha: 500 g ai/ha, visual injury, 0 to 100 scale (0 no effect, 100 complete control), approx. 10 d
Outline: as §1

[4] = test system: ragweed (common ragweed, Ambrosia elatior); test: Test A postemergence; settings: Ambrosia artemisiifolia, post-emergence, 240 h, Postemergence; for pest or weed control at 125 g/ha: 125 g ai/ha; for pest or weed control at 500 g/ha: 500 g ai/ha, visual injury, 0 to 100 scale (0 no effect, 100 complete control), approx. 10 d
Outline: as §1

[5] = test system: Kochia (Kochia scoparia); test: Test A postemergence; settings: Bassia scoparia, post-emergence, 240 h, Postemergence; for pest or weed control at 125 g/ha: 125 g ai/ha; for pest or weed control at 500 g/ha: 500 g ai/ha, visual injury, 0 to 100 scale (0 no effect, 100 complete control), approx. 10 d
Outline: as §1

[6] = test system: Galium (catchweed bedstraw, Galium aparine); test: Test A postemergence; settings: Galium, post-emergence, 240 h, Postemergence; for pest or weed control at 125 g/ha: 125 g ai/ha; for pest or weed control at 500 g/ha: 500 g ai/ha, visual injury, 0 to 100 scale (0 no effect, 100 complete control), approx. 10 d
Outline: as §1

[7] = test system: barnyardgrass (Echinochloa crus-galli); test: Test A postemergence; settings: Echinochloa crus-galli, post-emergence, 240 h, Postemergence; for pest or weed control at 125 g/ha: 125 g ai/ha; for pest or weed control at 500 g/ha: 500 g ai/ha, visual injury, 0 to 100 scale (0 no effect, 100 complete control), approx. 10 d
Outline: as §1

[8] = test system: pigweed (Amaranthus retroflexus); test: Test A postemergence; settings: Amaranthus retroflexus, post-emergence, 240 h, Postemergence; for pest or weed control at 125 g/ha: 125 g ai/ha; for pest or weed control at 500 g/ha: 500 g ai/ha, visual injury, 0 to 100 scale (0 no effect, 100 complete control), approx. 10 d
Outline: as §1

[9] = test system: blackgrass (Alopecurus myosuroides); test: Test A postemergence; settings: Alopecurus myosuroides, post-emergence, 240 h, Postemergence; for pest or weed control at 125 g/ha: 125 g ai/ha; for pest or weed control at 500 g/ha: 500 g ai/ha, visual injury, 0 to 100 scale (0 no effect, 100 complete control), approx. 10 d
Outline: as §1

[10] = test system: giant foxtail (Setaria faberii); test: Test A preemergence; settings: Setaria faberi, pre-emergence, 240 h, 0 to 100 scale (0 no effect, 100 complete control), read-out: Plant response rating, Foxtail, Giant; for pest or weed control at 500 g/ha: 500 g ai/ha, preemergence; for pest or weed control at 125 g/ha: Preemergence, 125 g ai/ha
Outline: as §1

[11] = test system: ryegrass, Italian (Italian ryegrass, Lolium multiflorum); test: Test A preemergence; settings: Lolium multiflorum, pre-emergence, 240 h, 0 to 100 scale (0 no effect, 100 complete control), read-out: Plant response rating, Ryegrass, Italian; for pest or weed control at 500 g/ha: 500 g ai/ha, preemergence; for pest or weed control at 125 g/ha: Preemergence, 125 g ai/ha
Outline: as §1

[12] = test system: ragweed (common ragweed, Ambrosia elatior); test: Test A preemergence; settings: Ambrosia artemisiifolia, pre-emergence, 240 h, 0 to 100 scale (0 no effect, 100 complete control), read-out: Plant response rating, Ragweed; for pest or weed control at 500 g/ha: 500 g ai/ha, preemergence; for pest or weed control at 125 g/ha: Preemergence, 125 g ai/ha
Outline: as §1

[13] = test system: Kochia (Kochia scoparia); test: Test A preemergence; settings: Bassia scoparia, pre-emergence, 240 h, 0 to 100 scale (0 no effect, 100 complete control), read-out: Plant response rating, Kochia; for pest or weed control at 500 g/ha: 500 g ai/ha, preemergence; for pest or weed control at 125 g/ha: Preemergence, 125 g ai/ha
Outline: as §1

[14] = test system: barnyardgrass (Echinochloa crus-galli); test: Test A preemergence; settings: Echinochloa crus-galli, pre-emergence, 240 h, 0 to 100 scale (0 no effect, 100 complete control), read-out: Plant response rating, Barnyardgrass; for pest or weed control at 500 g/ha: 500 g ai/ha, preemergence; for pest or weed control at 125 g/ha: Preemergence, 125 g ai/ha
Outline: as §1

[15] = test system: pigweed (Amaranthus retroflexus); test: Test A preemergence; settings: Amaranthus retroflexus, pre-emergence, 240 h, 0 to 100 scale (0 no effect, 100 complete control), read-out: Plant response rating, Pigweed; for pest or weed control at 500 g/ha: 500 g ai/ha, preemergence; for pest or weed control at 125 g/ha: Preemergence, 125 g ai/ha
[16] = visual rating about 10 d after treatment, read-out: Foxtail, Giant plant response rating (0 to 100 scale)
[17] = read-out: Plant response rating, Foxtail, Giant
[18] = visual rating about 10 d after treatment, read-out: Wheat plant response rating (0 to 100 scale)
[19] = read-out: Plant response rating, Wheat
[20] = visual rating about 10 d after treatment, read-out: Ragweed plant response rating (0 to 100 scale)
[21] = read-out: Plant response rating, Ragweed
[22] = visual rating about 10 d after treatment, read-out: Kochia plant response rating (0 to 100 scale)
[23] = read-out: Plant response rating, Kochia
[24] = visual rating about 10 d after treatment, read-out: Galium plant response rating (0 to 100 scale)
[25] = read-out: Plant response rating, Galium
[26] = visual rating about 10 d after treatment, read-out: Barnyardgrass plant response rating (0 to 100 scale, 0 no effect, 100 complete control)
[27] = read-out: Plant response rating, Barnyardgrass
[28] = visual rating about 10 d after treatment, read-out: Pigweed plant response rating (0 to 100 scale)
[29] = read-out: Plant response rating, Pigweed
[30] = visual rating about 10 d after treatment, read-out: Blackgrass plant response rating (0 to 100 scale)
[31] = read-out: Plant response rating, Blackgrass

| SMILES | pest or weed control at 500 g/ha [1, 17] [%] | plant injury at 500 g/ha [2, 19] [%] | Corn plant response rating (crop injury, 0 = no effect, 100 = complete kill) at 500 g/ha [3] [%] | pest or weed control at 500 g/ha [4, 21] [%] | pest or weed control at 500 g/ha [5, 23] [%] | pest or weed control at 500 g/ha [6, 25] [%] | pest or weed control at 500 g/ha [7, 27] [%] | pest or weed control at 500 g/ha [8, 29] [%] | pest or weed control at 500 g/ha [9, 31] [%] | pest or weed control at 500 g/ha [10] [%] | pest or weed control at 125 g/ha [10] [%] | pest or weed control at 500 g/ha [11] [%] | pest or weed control at 125 g/ha [11] [%] | pest or weed control at 500 g/ha [12] [%] | pest or weed control at 125 g/ha [12] [%] | pest or weed control at 500 g/ha [13] [%] | pest or weed control at 125 g/ha [13] [%] | pest or weed control at 500 g/ha [14] [%] | pest or weed control at 125 g/ha [14] [%] | pest or weed control at 500 g/ha [15] [%] | other results |
| --- | --- | --- | --- | --- | --- | --- | --- | --- | --- | --- | --- | --- | --- | --- | --- | --- | --- | --- | --- | --- | --- |
| CO[C@]1(C(=O)Nc2cccc(F)c2F)C(=O)N(C)C[C@@H]1c1ccc(C(F)(F)F)cc1 (racemic) [Compound 1334] | 50 | 0 | 30 | 20 | 0 | 50 | 50 | 40 | 0 | 80 | 40 | 20 | 0 | 30 | 0 | 20 | 0 | 80 | 20 | 30 | pest or weed control at 125 g/ha [1, 16]: 0%; plant injury at 125 g/ha [2, 18]: 0%; plant injury at 125 g/ha ([3]; 125 g ai/ha): 0%; pest or weed control at 125 g/ha [4, 20]: 0%; pest or weed control at 125 g/ha [5, 22]: 0%; pest or weed control at 125 g/ha [6, 24]: 50%; pest or weed control at 125 g/ha [7, 26]: 0%; pest or weed control at 125 g/ha [8, 28]: 30%; pest or weed control at 125 g/ha [9, 30]: 0%; pest or weed control at 125 g/ha [15]: 20% |
| O=C1NC[C@H](c2cccc(C(F)(F)F)n2)[C@H]1C(=O)Nc1cccc(F)c1F [Compound 1385] | 90 | 20 | 20 | 0 | 0 | 50 | 90 | 0 | 20 | 90 | 90 | 0 | 0 | 0 | 0 | 20 | 0 | 90 | 90 | 0 | pest or weed control at 125 g/ha ([1]; visual injury after approx. 10 d, 0 to 100 scale, 0 no effect, 100 complete control, read-out: Plant response rating, Foxtail, Giant): 70%; plant injury at 125 g/ha ([2]; visual injury after approx. 10 d, 0 to 100 scale, 0 no effect, 100 complete control, read-out: Plant response rating, Wheat): 0%; Corn plant response rating (crop injury, 0 = no effect, 100 = complete kill) at 125 g/ha ([3]; 125 g ai/ha, visual injury after approx. 10 d, 0 to 100 scale, 0 no effect, 100 complete control): 0%; pest or weed control at 125 g/ha ([4]; visual injury after approx. 10 d, 0 to 100 scale, 0 no effect, 100 complete control, read-out: Plant response rating, Ragweed): 0%; pest or weed control at 125 g/ha ([5]; visual injury after approx. 10 d, 0 to 100 scale, 0 no effect, 100 complete control, read-out: Plant response rating, Kochia): 0%; pest or weed control at 125 g/ha ([6]; visual injury after approx. 10 d, 0 to 100 scale, 0 no effect, 100 complete control, read-out: Plant response rating, Galium): 30%; pest or weed control at 125 g/ha ([7]; visual injury after approx. 10 d, 0 to 100 scale, 0 no effect, 100 complete control, read-out: Plant response rating, Barnyardgrass): 80%; pest or weed control at 125 g/ha ([8]; visual injury after approx. 10 d, 0 to 100 scale, 0 no effect, 100 complete control, read-out: Plant response rating, Pigweed): 0%; pest or weed control at 125 g/ha ([9]; visual injury after approx. 10 d, 0 to 100 scale, 0 no effect, 100 complete control, read-out: Plant response rating, Blackgrass): 20%; pest or weed control at 125 g/ha [15]: 0% |
| CN1C[C@H](c2ccc(C(F)F)cc2)[C@@H](C(=O)Nc2cccc(F)c2F)C1=O [Compound 1383] | 90 | 80 | 90 | 60 | 70 | 60 | 100 | 70 | 50 | 100 | 100 | 70 | 70 | 80 | 80 | 90 | 90 | 100 | 100 | 80 | pest or weed control at 125 g/ha [1, 16]: 90%; plant injury at 125 g/ha [2, 18]: 60%; plant injury at 125 g/ha ([3]; 125 g ai/ha): 80%; pest or weed control at 125 g/ha [4, 20]: 50%; pest or weed control at 125 g/ha [5, 22]: 70%; pest or weed control at 125 g/ha [6, 24]: 60%; pest or weed control at 125 g/ha [7, 26]: 100%; pest or weed control at 125 g/ha [8, 28]: 40%; pest or weed control at 125 g/ha [9, 30]: 40%; pest or weed control at 125 g/ha [15]: 80% |
